The target in assay [1] is Serine/threonine-protein kinase MRCK gamma (Homo sapiens) (UniProt Q6DT37). Kind of assay: Selectivity interaction (KinomeScan (DiscoverX)) EUB0000607a CDC42BPG. As to conditions: at 10 µM.
In assay [2] the target is Protein kinase C beta type (Homo sapiens, UniProt P05771). Kind of assay: Selectivity interaction (SelectScreen profiling (Invitrogen)) EUB0000607a PRKCB. The following applies: at 2 µM.
Assay [3] deals with T1, Ephrin type-B receptor 3 (Homo sapiens) (UniProt P54753).
T1 sequence (whole entry): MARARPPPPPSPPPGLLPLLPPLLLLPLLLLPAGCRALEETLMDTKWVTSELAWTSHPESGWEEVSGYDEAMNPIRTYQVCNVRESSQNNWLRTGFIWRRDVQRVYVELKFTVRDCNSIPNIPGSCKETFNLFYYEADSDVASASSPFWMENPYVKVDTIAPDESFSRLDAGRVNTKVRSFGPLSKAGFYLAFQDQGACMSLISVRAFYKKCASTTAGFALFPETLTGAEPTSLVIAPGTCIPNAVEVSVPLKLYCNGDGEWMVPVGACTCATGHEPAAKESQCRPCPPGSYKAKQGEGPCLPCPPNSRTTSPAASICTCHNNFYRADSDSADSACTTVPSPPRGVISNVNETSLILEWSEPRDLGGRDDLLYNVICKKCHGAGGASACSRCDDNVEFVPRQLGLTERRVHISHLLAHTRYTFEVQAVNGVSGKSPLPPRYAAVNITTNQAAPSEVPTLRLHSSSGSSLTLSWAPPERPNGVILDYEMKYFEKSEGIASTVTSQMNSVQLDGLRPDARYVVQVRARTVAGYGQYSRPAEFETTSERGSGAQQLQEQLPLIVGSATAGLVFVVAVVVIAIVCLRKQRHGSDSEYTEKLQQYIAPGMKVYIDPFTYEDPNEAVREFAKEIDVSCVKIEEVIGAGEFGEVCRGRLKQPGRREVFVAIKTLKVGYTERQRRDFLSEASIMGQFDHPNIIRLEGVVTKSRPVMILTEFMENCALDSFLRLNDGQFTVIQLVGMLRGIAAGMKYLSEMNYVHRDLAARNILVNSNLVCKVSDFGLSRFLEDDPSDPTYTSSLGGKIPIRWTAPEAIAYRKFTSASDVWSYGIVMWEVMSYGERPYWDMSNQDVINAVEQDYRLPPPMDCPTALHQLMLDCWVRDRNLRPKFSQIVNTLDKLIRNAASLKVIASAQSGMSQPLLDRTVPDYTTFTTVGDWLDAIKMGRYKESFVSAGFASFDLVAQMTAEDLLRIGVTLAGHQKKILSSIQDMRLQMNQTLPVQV
Kind of assay: Selectivity interaction (KinomeScan (DiscoverX)) EUB0000607a EPHB3. As to conditions: at 10 µM.

The target in assay [4] is T2, Serine/threonine-protein kinase TNNI3K (Homo sapiens) (UniProt Q59H18).
T2 sequence (whole entry): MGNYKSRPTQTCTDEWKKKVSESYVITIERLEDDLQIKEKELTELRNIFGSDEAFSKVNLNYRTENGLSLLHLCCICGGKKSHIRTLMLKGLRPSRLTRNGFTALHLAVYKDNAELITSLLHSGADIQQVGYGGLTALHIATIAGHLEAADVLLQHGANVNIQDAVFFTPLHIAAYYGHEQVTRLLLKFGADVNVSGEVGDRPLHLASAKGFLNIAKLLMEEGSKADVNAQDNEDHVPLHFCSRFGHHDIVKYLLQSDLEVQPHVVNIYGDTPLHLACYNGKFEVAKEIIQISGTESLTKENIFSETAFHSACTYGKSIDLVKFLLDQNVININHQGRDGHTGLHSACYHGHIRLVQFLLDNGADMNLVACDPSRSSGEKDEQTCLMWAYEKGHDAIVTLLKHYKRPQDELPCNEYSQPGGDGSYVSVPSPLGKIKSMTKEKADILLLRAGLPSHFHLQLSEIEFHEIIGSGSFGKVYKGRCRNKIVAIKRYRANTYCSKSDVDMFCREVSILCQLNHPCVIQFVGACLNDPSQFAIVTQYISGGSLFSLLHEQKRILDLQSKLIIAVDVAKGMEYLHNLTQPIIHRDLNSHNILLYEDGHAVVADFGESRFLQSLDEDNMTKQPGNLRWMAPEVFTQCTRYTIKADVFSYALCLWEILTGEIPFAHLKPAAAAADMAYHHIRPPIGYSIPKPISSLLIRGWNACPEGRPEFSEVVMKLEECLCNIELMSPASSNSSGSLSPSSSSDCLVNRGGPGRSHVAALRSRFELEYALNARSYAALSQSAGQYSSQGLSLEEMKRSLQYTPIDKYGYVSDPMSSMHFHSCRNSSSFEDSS
Kind of assay: Selectivity interaction (KinomeScan (DiscoverX)) EUB0000229b TNNI3K. As to conditions: at 10 µM.

The target in assay [5] is STE20-like serine/threonine-protein kinase (Homo sapiens, UniProt Q9H2G2). The assay can be described thus: Selectivity interaction (ActivX KiNativ screen (ex vivo kinase selectivity in human PBMCs)) EUB0001619a SLK. In kind it is cell-based. As to conditions: PBMC, at 1 µM.
Assay [6] addresses Tyrosine-protein kinase BTK (Homo sapiens, UniProt Q06187). Kind of assay: Selectivity interaction (Kinase panel (33PanQinase(R) Activity Assay)) EUB0000877a BTK.
Assay [7] addresses Ribosomal protein S6 kinase alpha-1 (Homo sapiens, UniProt Q15418). The assay can be described thus: Selectivity interaction (ActivX KiNativ screen (kinase selectivity in THP-1 cell lysates)) EUB0000639a RPS6KA1. In kind it is subcellular. The following applies: lysate, at 0.01 µM.
In assay [8] the target is Serine/threonine-protein kinase 10 (Homo sapiens) (UniProt O94804). Kind of assay: Selectivity interaction (ActivX KiNativ screen (kinase selectivity in THP-1 cell lysates)) EUB0000639a STK10. In kind it is subcellular. As to conditions: lysate, at 0.01 µM.
Assay [9] concerns the target Eukaryotic translation initiation factor 2-alpha kinase 3 (Homo sapiens, UniProt Q9NZJ5).
For assay [10], the target named is T3, Phosphorylase b kinase gamma catalytic chain, liver/testis isoform (Homo sapiens) (UniProt P15735).
T3 sequence (whole entry): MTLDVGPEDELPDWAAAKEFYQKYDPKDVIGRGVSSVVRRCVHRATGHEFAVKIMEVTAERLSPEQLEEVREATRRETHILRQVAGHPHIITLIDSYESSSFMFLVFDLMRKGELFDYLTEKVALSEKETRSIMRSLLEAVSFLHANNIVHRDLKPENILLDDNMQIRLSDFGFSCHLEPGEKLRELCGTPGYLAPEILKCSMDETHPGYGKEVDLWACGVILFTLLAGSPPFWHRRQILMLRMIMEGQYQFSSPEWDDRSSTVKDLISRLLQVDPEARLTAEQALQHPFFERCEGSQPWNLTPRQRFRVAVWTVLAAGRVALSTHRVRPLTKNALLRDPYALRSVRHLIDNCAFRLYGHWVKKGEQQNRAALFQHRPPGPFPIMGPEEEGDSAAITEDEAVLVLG
Kind of assay: Selectivity interaction (KinomeScan (DiscoverX)) EUB0000595a PHKG2. As to conditions: at 10 µM.

The target of assay [11] is Serine/threonine-protein kinase 24 (Homo sapiens) (UniProt Q9Y6E0). The assay can be described thus: Selectivity interaction (KinomeScan (DiscoverX)) EUB0000595a STK24. As to conditions: at 10 µM.

These results are taken from ChEMBL document CHEMBL5465560, “Selectivity Literature for EUbOPEN Chemogenomic Library” (2024).

SMILES strings stand for the structures.

Chain of Eukaryotic translation initiation factor 2-alpha kinase 3 (Q9NZJ5 whole entry, canonical isoform): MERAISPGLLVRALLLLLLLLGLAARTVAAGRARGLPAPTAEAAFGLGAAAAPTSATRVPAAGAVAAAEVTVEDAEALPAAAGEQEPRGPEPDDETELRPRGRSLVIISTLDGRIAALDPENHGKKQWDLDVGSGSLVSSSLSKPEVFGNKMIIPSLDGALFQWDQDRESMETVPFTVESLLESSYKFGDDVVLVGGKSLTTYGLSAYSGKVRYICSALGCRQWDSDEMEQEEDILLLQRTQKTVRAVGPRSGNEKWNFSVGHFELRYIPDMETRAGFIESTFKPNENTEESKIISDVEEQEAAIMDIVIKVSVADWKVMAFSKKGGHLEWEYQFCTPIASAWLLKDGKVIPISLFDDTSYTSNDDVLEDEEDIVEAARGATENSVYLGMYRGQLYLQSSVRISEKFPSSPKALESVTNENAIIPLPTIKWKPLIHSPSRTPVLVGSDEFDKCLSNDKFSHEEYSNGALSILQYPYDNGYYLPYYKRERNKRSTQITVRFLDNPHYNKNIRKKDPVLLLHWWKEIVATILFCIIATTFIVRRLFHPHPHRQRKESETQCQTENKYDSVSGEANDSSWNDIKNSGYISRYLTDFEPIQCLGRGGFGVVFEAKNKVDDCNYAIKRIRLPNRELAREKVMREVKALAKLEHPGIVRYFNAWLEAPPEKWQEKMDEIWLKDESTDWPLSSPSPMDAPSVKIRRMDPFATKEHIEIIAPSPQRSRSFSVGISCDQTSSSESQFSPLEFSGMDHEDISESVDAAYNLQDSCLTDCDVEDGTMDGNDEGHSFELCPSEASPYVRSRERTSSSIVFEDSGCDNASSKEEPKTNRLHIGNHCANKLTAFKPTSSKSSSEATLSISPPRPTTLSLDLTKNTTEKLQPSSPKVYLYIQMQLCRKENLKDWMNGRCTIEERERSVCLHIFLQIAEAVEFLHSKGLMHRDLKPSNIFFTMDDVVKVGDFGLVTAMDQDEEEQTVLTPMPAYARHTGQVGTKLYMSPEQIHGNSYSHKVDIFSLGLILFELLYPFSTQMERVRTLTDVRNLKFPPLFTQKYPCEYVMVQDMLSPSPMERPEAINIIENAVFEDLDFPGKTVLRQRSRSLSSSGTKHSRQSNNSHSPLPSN
Chain of Ribosomal protein S6 kinase alpha-1 (Q15418 whole entry): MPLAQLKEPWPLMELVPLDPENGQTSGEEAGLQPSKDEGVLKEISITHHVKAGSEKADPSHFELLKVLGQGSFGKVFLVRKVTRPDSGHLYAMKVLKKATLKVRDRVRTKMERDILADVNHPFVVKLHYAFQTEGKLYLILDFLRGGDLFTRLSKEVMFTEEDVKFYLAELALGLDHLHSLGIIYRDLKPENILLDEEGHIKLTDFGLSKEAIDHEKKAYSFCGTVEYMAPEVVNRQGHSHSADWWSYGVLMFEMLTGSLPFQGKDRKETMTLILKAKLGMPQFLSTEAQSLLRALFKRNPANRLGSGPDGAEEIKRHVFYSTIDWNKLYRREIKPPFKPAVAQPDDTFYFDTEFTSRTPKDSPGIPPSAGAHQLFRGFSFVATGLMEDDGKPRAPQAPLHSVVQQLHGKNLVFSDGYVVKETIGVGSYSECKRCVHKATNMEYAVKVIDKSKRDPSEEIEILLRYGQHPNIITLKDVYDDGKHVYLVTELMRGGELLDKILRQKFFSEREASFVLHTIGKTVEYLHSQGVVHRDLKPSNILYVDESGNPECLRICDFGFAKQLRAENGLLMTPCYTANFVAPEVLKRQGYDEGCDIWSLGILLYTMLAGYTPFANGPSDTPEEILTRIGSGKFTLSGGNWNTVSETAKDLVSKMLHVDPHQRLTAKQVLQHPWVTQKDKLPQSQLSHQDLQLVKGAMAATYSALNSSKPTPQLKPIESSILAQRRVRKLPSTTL
Chain of STE20-like serine/threonine-protein kinase (Q9H2G2 whole entry, looked up): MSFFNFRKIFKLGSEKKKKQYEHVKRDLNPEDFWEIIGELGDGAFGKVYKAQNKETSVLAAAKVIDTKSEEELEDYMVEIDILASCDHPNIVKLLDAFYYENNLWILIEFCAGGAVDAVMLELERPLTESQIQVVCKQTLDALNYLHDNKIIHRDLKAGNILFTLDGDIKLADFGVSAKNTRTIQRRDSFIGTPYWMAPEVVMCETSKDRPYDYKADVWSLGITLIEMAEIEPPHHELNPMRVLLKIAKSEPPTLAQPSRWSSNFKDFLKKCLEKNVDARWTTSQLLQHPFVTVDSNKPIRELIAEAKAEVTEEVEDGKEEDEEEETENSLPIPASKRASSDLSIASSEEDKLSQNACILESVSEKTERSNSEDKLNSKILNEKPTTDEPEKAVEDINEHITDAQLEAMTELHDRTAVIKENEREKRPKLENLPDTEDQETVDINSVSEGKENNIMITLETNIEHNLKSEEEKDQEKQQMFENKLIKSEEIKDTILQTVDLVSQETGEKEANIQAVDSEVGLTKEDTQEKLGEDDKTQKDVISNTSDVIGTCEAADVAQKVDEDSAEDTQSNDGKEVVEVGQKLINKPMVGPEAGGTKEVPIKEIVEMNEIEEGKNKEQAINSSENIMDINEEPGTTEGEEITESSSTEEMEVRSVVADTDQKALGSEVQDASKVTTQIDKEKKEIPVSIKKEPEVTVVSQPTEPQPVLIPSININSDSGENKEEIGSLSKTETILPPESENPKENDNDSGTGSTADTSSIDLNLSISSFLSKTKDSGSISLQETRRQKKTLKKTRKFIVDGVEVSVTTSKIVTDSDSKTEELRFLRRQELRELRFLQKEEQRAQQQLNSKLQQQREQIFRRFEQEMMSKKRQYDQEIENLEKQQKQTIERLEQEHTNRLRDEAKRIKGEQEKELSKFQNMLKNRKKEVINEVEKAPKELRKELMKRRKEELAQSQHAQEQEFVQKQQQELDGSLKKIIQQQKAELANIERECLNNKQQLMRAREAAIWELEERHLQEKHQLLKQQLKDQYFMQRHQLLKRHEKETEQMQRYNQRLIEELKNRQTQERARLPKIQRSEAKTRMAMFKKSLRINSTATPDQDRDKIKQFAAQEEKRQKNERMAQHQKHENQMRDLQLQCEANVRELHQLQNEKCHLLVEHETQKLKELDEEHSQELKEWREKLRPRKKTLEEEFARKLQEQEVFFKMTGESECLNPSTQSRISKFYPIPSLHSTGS
Chain of Serine/threonine-protein kinase 10 (Homo sapiens) (O94804 whole entry, looked up): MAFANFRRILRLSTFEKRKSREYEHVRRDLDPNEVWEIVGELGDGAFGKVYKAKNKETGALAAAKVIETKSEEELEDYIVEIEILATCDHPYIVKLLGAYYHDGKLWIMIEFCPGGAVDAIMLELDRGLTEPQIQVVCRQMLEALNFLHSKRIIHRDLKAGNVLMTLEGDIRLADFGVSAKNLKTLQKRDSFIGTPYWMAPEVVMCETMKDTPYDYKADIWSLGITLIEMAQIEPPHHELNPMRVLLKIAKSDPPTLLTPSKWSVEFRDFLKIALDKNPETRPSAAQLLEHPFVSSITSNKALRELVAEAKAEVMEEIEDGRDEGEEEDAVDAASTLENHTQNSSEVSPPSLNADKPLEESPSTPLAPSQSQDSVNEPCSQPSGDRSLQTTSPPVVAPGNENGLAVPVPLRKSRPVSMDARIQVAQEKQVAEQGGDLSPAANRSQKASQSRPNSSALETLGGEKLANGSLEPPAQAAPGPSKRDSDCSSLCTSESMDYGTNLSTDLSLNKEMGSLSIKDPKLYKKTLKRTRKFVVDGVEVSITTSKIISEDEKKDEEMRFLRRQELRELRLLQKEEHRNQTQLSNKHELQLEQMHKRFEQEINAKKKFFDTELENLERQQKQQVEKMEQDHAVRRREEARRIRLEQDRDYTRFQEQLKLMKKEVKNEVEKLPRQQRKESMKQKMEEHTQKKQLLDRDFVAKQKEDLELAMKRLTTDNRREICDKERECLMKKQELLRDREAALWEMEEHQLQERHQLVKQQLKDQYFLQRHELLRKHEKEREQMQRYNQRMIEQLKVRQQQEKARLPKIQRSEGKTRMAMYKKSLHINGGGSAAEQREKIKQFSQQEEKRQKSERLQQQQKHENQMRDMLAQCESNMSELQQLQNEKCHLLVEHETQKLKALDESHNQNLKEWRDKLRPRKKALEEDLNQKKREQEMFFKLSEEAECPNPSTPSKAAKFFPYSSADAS
Chain of Tyrosine-protein kinase BTK (Q06187 whole entry): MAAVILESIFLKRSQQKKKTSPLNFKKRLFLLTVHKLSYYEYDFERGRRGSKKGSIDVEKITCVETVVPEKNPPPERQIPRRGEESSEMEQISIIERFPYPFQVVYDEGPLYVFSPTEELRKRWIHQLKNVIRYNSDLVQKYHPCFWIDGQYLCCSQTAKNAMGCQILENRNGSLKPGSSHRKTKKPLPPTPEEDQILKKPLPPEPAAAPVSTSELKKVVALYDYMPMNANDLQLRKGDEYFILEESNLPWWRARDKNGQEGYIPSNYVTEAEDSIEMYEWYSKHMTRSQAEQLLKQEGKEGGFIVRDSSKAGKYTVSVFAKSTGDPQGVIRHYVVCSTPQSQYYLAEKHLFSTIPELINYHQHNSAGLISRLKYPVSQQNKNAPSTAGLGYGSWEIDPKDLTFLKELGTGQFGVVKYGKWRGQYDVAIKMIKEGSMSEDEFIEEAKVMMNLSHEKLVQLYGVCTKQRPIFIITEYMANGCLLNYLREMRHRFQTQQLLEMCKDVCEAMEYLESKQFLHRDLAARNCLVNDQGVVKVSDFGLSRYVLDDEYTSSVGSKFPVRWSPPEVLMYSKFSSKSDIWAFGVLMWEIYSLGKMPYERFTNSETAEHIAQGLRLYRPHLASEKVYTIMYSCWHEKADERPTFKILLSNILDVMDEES

On to `CNC(=O)Nc1ccc(-c2nc(N3CC4CCC(C3)O4)c3cnn(C4CCC5(CC4)OCCO5)c3n2)cc1`, for which the figures for the % of control in assay [1] and in assay [3] were 84% and 92%, respectively. In [2], this molecule yielded a % of inhibition of 9%.

As to `COc1cc(N(C)c2ccnc3ccc(C(F)(F)F)cc23)cc(OC)c1OC`, the % binding in assay [4] was 90%.

`N#Cc1cccc(-c2c[nH]c3ncnc(N4CCOCC4)c23)c1` showed a % of inhibition in [5] of 66%.

The term IC50 denotes the concentration that gives 50% inhibition. On to `CCC(=O)N1CC[C@H](Nc2ncnc3c2CN(c2cnc(OC)c(C(F)(F)F)c2)CC3)C1` [LENIOLISIB], for which, in [6], the IC50 was > 10 µM.

For the molecule `CC[C@@H]1[C@H](F)C(=O)N[C@@H]1COc1nccc2cc(C(N)=O)c(OC)cc12` [ZIMLOVISERTIB], the % of inhibition turned out to be 16.9% in [7] and 2.4% in assay [8].

As to `CCc1cccc(CC)c1NC(=O)c1nn(C)c2c1CCc1cnc(Nc3ccc(C(=O)NC4CCN(C)CC4)cc3OC(F)(F)F)nc1-2`, in assay [9], the half-maximal inhibitory concentration (IC50) is > 10 µM.

Consider `COCC(=O)NC/C=C/c1ccc2ncnc(Nc3ccc(Oc4ccc(C)nc4)c(C)c3)c2c1` [CP-724714], for which the % of control in assay [10] amounted to 86%; in [11], 90%.
